The results in this text go back to paper PMC8636635 (Communications Biology, 2021).

The assay has as its target Protein 3a (Severe acute respiratory syndrome coronavirus 2, UniProt P0DTC3). Briefly: two-electrode voltage clamp, X. laevis oocytes. The conditions noted are these: read-out: % block at 10 μM.

SMILES strings stand for the structures.

Chain of Protein 3a (P0DTC3 whole entry): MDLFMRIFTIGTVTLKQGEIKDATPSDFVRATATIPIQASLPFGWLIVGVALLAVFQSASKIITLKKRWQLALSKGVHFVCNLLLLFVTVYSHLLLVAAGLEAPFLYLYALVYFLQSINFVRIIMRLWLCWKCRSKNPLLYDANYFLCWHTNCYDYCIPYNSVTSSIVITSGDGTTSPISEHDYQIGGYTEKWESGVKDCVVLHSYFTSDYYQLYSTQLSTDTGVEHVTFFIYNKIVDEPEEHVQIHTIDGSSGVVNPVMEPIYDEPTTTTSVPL

For `c1ccc2c(c1)Cc1ccccc1O2` [xanthene], the inhibition at 10 µM worked out at 20%.
